Structures are written as SMILES. Where a name gives a salt, the structure may show the parent alone.

The test system of experiment [1] is Diet-induced obesity (DIO) mice. Put plainly: Anti-obesity effect test using DIO mouse (Test Example 3). Format: in vivo. To be noted: male, 32-week old, average ± standard deviation, six mice. The method, then:
Diet-induced obesity (DIO) mice (D12079B diet, male, 32-week old) were orally administered with a 0.5% methyl cellulose suspension containing a test compound (10 mg/kg) (compound administration group, six mice per group) or a 0.5% methyl cellulose suspension (compound non-administration group (vehicle), six mice per group) once a day for one week. The averages and the standard deviations of the body weights at the start of administration and after continuous administration for one week are shown below.

Experiment [2] relates to High fat diet-fed (HFD-fed) mice. Put plainly: Fecal protein concentration-increasing test using HFD-fed mouse (Test Example 2-1). Format: in vivo. To be noted: male, 19-week old, 10 mg/kg orally, whole feces of first day of administration, average ± standard deviation, six mice. Here is the method:
(§1) High fat diet-fed (HFD-fed) mice (D12079B diet, male, 19-week old) were orally administered with a 0.5% methyl cellulose suspension containing a test compound (10 mg/kg) (compound administration group, six mice per group) or a 0.5% methyl cellulose suspension (compound non-administration group (vehicle), five mice per group), and whole feces were collected on the first day of administration. Dried feces were dissolved in 0.5 N NaOH, followed by centrifugation at 12,000 rpm. The protein concentration in the supernatant was then quantitatively measured (Lowry method), and the amount of protein contained in 1 g of feces was calculated as the fecal protein concentration (mg/g feces). The average and the standard deviation of each group are shown below.

Experiment [3] has as its target T1, Human recombinant enteropeptidase (Homo sapiens, UniProt P98073).
T1 construct: purchased ITSI-Biosciences LLC #REN-260
Put plainly: Human enteropeptidase inhibitory activity (Test Example 1). The format is biochemical. To be noted: 3.3 μM test compound, inhibition rate from fluorescence intensity at 2 hours after the start of the reaction; for inhibition at 3.3 µM: read-out: 3.3 μM Inhibition. The essentials:
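Recombinant human enteropeptidase in 50 mM Tricine pH 8.0, 0.01% Tween 20, 10 mM CaCl2, with a 5FAM/CPQ2-quenched peptide substrate (2.1 μM solution before mixing). Compound came from 1 mM DMSO stock diluted 100-fold in buffer. Fluorescence (ex 485/em 535 nm) at 2 h gave % inhibition versus no-compound and no-enzyme controls.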

In experiment [4] the test system is High fat diet-fed (HFD-fed) mice. Put plainly: Fecal protein concentration-increasing test using HFD-fed mouse (Test Example 2-2). The format is in vivo. To be noted: male, 47-week old, 10 mg/kg orally, whole feces of first day of administration, average ± standard deviation, five mice. The method, then: as §1, with “47-week” for “19-week”, “five” for “six”, “was” for “was then”

T1 sequence (P98073 whole entry): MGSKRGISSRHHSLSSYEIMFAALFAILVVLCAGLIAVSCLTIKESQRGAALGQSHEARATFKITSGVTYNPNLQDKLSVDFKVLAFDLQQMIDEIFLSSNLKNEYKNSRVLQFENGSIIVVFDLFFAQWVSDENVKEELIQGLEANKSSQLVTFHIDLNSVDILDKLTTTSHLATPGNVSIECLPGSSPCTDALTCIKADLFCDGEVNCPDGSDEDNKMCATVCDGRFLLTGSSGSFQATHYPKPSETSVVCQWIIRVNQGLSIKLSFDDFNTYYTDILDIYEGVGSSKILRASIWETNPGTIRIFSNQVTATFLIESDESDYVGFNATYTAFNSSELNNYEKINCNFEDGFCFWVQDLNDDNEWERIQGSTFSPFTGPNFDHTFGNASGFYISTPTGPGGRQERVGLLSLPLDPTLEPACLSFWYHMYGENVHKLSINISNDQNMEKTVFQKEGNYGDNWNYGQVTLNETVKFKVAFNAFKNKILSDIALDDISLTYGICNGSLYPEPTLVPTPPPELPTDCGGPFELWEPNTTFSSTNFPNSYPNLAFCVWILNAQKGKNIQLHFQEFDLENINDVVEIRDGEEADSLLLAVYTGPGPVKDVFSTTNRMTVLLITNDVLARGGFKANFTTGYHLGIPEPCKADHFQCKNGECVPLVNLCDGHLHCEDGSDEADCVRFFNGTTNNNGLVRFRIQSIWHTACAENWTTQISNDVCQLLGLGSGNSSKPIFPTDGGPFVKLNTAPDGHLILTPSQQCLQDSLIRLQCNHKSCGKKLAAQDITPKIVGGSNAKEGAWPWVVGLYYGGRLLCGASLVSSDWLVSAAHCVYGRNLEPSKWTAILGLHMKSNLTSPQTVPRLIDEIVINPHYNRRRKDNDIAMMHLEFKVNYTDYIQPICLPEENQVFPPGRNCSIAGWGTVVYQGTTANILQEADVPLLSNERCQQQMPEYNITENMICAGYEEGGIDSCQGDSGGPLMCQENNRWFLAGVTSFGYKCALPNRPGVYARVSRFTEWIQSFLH

For the compound `N=C(N)Nc1ccc2c(c1)CCCOc1c(cccc1C(=O)N[C@@H](CC(=O)O)C(=O)O)OC2=O` [Example 3, N-((10-Carbamimidamido-13-oxo-6,7,8,13-tetrahydrodibenzo[b,f][1,4]dioxecin-4-yl)carbonyl)aspartic acid], the “Body Weight (g) After continuous administration for one week” value in experiment [1] (10 mg/kg orally once a day for one week) was determined as 41.4 ± 2.2 g. Also, in experiment [1] (group given 10 mg/kg orally once a day, baseline), the “Body Weight (g) Start of administration” value was found to be 44.5 ± 2.2 g. Besides, the “Fecal protein concentration (mg/g feces)” value in experiment [2] amounted to 233.3 ± 35.9 mg/g feces. In addition, in experiment [3], the “3.3 μM Inhibition” value was found to be 101%. A word on the inhibition: it is the drop in the measured response relative to a control, in per cent. Take `N=C(N)Nc1ccc2c(c1)CCCOc1c(cccc1C(=O)N(CC(=O)O)[C@@H](Cc1ccc(OCCN(CC(=O)O)Cc3ccccc3)cc1)C(=O)O)OC2=O` [Example 122, O-(2-(Benzyl(carboxymethyl)amino)ethyl)-N-((10-carbamimidamido-13-oxo-6,7,8,13-tetrahydrodibenzo[b,f][1,4]dioxecin-4-yl)carbonyl)-N-(carboxymethyl)-L-tyrosine]: the “Fecal protein concentration (mg/g feces)” value in experiment [4] was 165.4 ± 16.2 mg/g feces. For the same compound, the inhibition at 3.3 µM in experiment [3] stood at 101%. In the same order, the values of `N=C(N)Nc1ccc2c(c1)CCCOc1c(cccc1C(=O)N(Cc1cccc(C(=O)O)c1)[C@@H](CC(=O)O)C(=O)O)OC2=O` [Example 136, N-((10-Carbamimidamido-13-oxo-6,7,8,13-tetrahydrodibenzo[b,f][1,4]dioxecin-4-yl)carbonyl)-N-(3-carboxybenzyl)-L-aspartic acid] are 274.3 ± 74.6 mg/g feces and 100%. The corresponding values for `N=C(N)Nc1ccc2c(c1)CCCOc1c(ccc(CCC(=O)O)c1C(=O)N(CC(=O)O)Cc1cccc(C(=O)O)c1)OC2=O` [Example 145, 3-((((10-Carbamimidamido-3-(2-carboxyethyl)-13-oxo-6,7,8,13-tetrahydrodibenzo[b,f][1,4]dioxecin-4-yl)carbonyl) (carboxymethyl)amino)methyl)benzoic acid] are 201.3 ± 45.3 mg/g feces and 99%. In the same order, the values of `N=C(N)Nc1ccc2c(c1)CCCOc1c(cccc1C(=O)N(CCN(CC(=O)O)CC(=O)O)CC(=O)O)OC2=O` [Example 120, N-(2-(Bis(carboxymethyl)amino)ethyl)-N-((10-carbamimidamido-13-oxo-6,7,8,13-tetrahydrodibenzo[b,f][1,4]dioxecin-4-yl)carbonyl)glycine] are 194.6 ± 48.1 mg/g feces and 101%. As for `COc1ccc(C[C@@H](C(=O)O)N(CC(=O)O)C(=O)c2cccc3c2OCCCc2cc(NC(=N)N)ccc2C(=O)O3)cc1` [Example 94, N-((10-Carbamimidamido-13-oxo-6,7,8,13-tetrahydrodibenzo[b,f][1,4]dioxecin-4-yl)carbonyl)-N-(carboxymethyl)-O-methyl-L-tyrosine], in experiment [4], the “Fecal protein concentration (mg/g feces)” value is recorded as 201.0 ± 21.8 mg/g feces. Moreover, the inhibition at 3.3 µM in experiment [3] is 101%.

Consider `N=C(N)Nc1ccc2c(c1)CCCc1c(cccc1C(=O)N[C@@H](CC(=O)O)C(=O)O)OC2=O` [Example 30, N-((9-Carbamimidamido-6-oxo-6,11,12,13-tetrahydrodibenzo[b,g]oxonin-1-yl)carbonyl)-L-aspartic acid trifluoroacetate], for which the inhibition at 3.3 µM in experiment [3] came to 101%. The same measure, in the same setting: in the case of `N=C(N)Nc1ccc2c(c1)CCCOc1c(cc(Cl)cc1C(=O)N[C@@H](CC(=O)O)C(=O)O)OC2=O` [Example 66, N-((10-carbamimidamido-2-chloro-13-oxo-6,7,8,13-tetrahydro-dibenzo[b,f] [1,4]dioxecin-4-yl)carbonyl)-L-aspartic acid] it was 101%.

For `N=C(N)Nc1ccc2c(c1)OCCCCOc1cc(CCC(=O)NC(CC(=O)O)C(=O)O)ccc1OC2=O` (centres unmarked) [Example 46, N-(3-(3-carbamimidamido-16-oxo-6,7,8,9-tetrahydro-16H-dibenzo[b,f][1,4,8]trioxacyclo-dodecin-12-yl)propanoyl) aspartic acid], in experiment [3], the inhibition at 3.3 µM was 100%.
